Laboratory results reported in patent US6465007B1, “Transgene expression in polarized cells” (Genzyme Corporation, priority 1998, dated 2002).

Key:
mouse trachea = assay: Intranasal instillation of Ad2βgal-4, quantitative chemiluminescent βgal assay of trachea; assay type: in vivo
Procedure: Female BALB/c mice 9-12 weeks of age were purchased from Taconic (Germantown, N.Y.). In some groups, mice were instilled intranasally with 25 μl of a solution containing EGTA (pH 7.5), followed by 25 μl of 5% sucrose in PBS containing Adβgal-4 (2×10^8 IU). In other groups, mice were co-instilled with 25 μl of a solution prepared by mixing equal volumes of a 2× (4×10^8 IU/25 μl) Ad2βgal-4 solution in 10% sucrose with 2×EGTA prior to instillation.
To quantify βgal expression, mice were sacrificed with an intraperitoneal injection of Somlethal (King Pharmaceuticals, Bristol, Tenn.) as described by Kaplan et al (1998), and samples of trachea from individual mice were homogenized in lysis buffer. βgal activity was measured with a commercial kit (Galactolight, Tropix, Bedford, Mass.). Protein concentration in the homogenate was measured using DC reagent (Bio-Rad, Hercules, Calif.). Results are expressed as relative light units (RLU) per milligram of total protein.

polarized NHBE cells [1] = assay: Binding and internalization of cationic lipid:pDNA complexes (TOTO-1 label, trypan blue quenching)
Procedure: Cells were incubated with TOTO-1 or Rh-PE labeled complexes at 37° C. for the times noted in the figure legends. Following incubation, cells were washed 7 times with cold PBS and then fixed in 2% paraformadehyde for 20 min at 4° C. The membrane of the insert was removed and mounted using immuno-mount (Shandon, Pittsburgh, Pa.) containing 2 μg/ml DAPI (Molecular Probes). Bound and internalized complexes were observed under a fluorescence microscope (Olympus, AX-70). To observe only internalized complexes, cells were washed 2 times with cold PBS and then the fluorescence of surface bound complexes was quenched by a 10 min incubation with trypan blue (1 mg/ml; Diagnostic Systems, Inc., Gibbstown, N.J.) on ice. Cells were then washed an additional 5 times with cold PBS, fixed and mounted.
Polarized NHBE cells were cultured using a modified procedure based on the methods described by Yamaya et al., American Journal of Physiology, 265:L170-L177 (1993), Jiang et al., Science, 262:424-427 (1993) and Gray et al., American Journal of Respiratory Cell & Molecular Biology, 14:104-112 (1996). Briefly, first passage NHBE cells were plated at a density of 2.5×10^5 cells/cm^2 onto inserts (Millicell-PCF, 0.4 μm pore size, Millipore) coated with human placental collagen (Sigma). The culture medium was the same as that described above for growing NHBE cells as islands. Cultures were maintained under air-liquid interface conditions starting at day 3 following the initial seeding. Cells were considered ready for use when the trans-epithelial resistance was •1000 Ωcm^2.

[2] = test system: epithelial tight junctions of mouse trachea; assay: Lanthanum precipitation in trachea under TEM; assay type: in vivo; details: treated animals vs control animals
Procedure: Openings in tight junctions were visualized using a method described previously (Shaklai and Tavassoli, 1977; and Schneeberger and McCormack, 1984) with modifications. Briefly, mouse trachea was fixed with 2.5% glutaraldehyde, 1% lanthanum nitrate in 0.1 M cacodylate buffer, pH 7.4, for 4 to 6 h at […]. The trachea was then rinsed and washed 16 h with three changes of ice-cold 6.8% sucrose in 0.1 M cacodylate buffer ˜pH 7.4). The samples were postfixed in 1% OsO4 in 0.1 M cacodylate buffer containing 1% lanthanum nitrate pH 7.4 at 4° C. for 1 h, and dehydrated and then embedded in epoxy resin.

[3] = test system: columnar epithelial cells in mouse trachea; assay: Light and electron microscopy of trachea; assay type: in vivo
Text: Tracheas stained with X-gal were removed from the fixing solution and processed for light and electron microscopy using standard procedures. Briefly, the tissues were washed with PBS, dried in alcohols, embedded in glycol methacrylate (GMA) and stained with nuclear fast red. The Ogal-stained cells were identified by light microscopy. For electron microscopy, the fixed tissues were washed three times in Sabatini's solution (1×PBS containing 6.8% sucrose), and postfixed with 1% osmium tetroxide in 0.1 M cacodylate buffer (pH7.4) for an hour, followed by three washes with Sabatini's solution. The samples were then dehydrated with a graded series of alcohols (30, 50, 75, 90 and 100 % for 15 min each), followed by treatments with propylene oxide (15 min), a 1:1 Epon-propylene oxide mix (1 h), and three incubations in pure Epon (3 h, 3 h and overnight). Polymerization was at 64° C. overnight. After embedding, ultrathin sections were cut (MT2 Sorvall ultramicrotome) and stained with lead citrate and uranyl acetate and examined with a JEOL 100CX transmission electron microscope (TEM).

polarized NHBE cells [4] = assay: In vitro transfection with GL-67:pCF1-SEAP, secreted alkaline phosphatase in apical supernatant; assay type: cell-based, human
Procedure: Prior to transfection, polarized NHBE cells on inserts were incubated in either Opti-MEM, Opti-MEM containing 0.1% EGTA, or in Ca^2+-free media (Gibco) in both sides of the insert for 30 min at 37° C. The cells were then washed 3 times with Opti-MEM, and incubated with unlabeled GL-67:pCF1-SEAP (40:53 μM) for 4 h at 37° C., after which they were washed 3 times with Opti-MEM. One ml of culture medium then was added to the outside of the insert (basal side) and 100 μl added to the inside of the insert (apical side). The supernatant from the apical side was collected on day 2 after transfection, heated at 65° C. for 1 h to denature endogenous alkaline phosphatases (Berger et al., Gene, 1988), and assayed in triplicate for secreted alkaline phosphatase (SEAP) activity using an alkaline phosphatase reagent (Sigma) and human placental alkaline phosphatase (Calbiochem, La Jolla, Calif.) as a standard.
To inhibit NHBE cell proliferation, aphidicolin (0.5 μg/ml; Sigma) was added to culture medium on the basal side of the polarized NHBE cells for 18 h at 37° C. The cells were then transfected as described above except that the concentrations of cationic lipid and pDNA were 80 and 107 μM, respectively. After transfection, aphidicolin was present in the culture medium until the cells were harvested. […] Retinoic acid enhanced the inhibitory effect of aphidicolin on cell proliferation (Chou, R. H. et al., Cell & Tissue Kinetics, 18:387-97, 1985).

AdV = assay: Effect on AdV titer assessed on 293 cells; details: concentrations up to 0.4 M
Procedure: To rule out the possibility that EGTA might enhance the activity of AdV, the effects of EGTA on AdV titer were assessed on 293 cells.

tight junctions = details: compared with EDTA; cited from earlier work

SMILES: O=C(O)CN(CCOCCOCCN(CC(=O)O)CC(=O)O)CC(=O)O [EGTA, Ethylene glycol bis(B-aminoethyl ether) N,N,N′,N′-tetraacetic acid]
- time between treatment and AdV instillation giving maximal enhancement of β-gal expression (mouse trachea; 0.1M and 0.4M, FIG. 5B): 0.5 h
- tracheal gene expression relative to co-instilling AdV with 0.05M EGTA (mouse trachea; pre-treated with 0.05 and 0.1M, FIG. 5A): > 6 fold
- Effects of Tight Junction Disrupting Compounds on Cationic Amphiphile: DNA Complex Binding (polarized NHBE cells [1]; Table 1, grades Very Effective / Mildly Effective): Very Effective
- complex internalization (polarized NHBE cells [1]; fully polarized NHBE cells pretreated before incubation with complexes): increased dramatically
- toxicity (polarized NHBE cells [1]; pretreatment of fully polarized NHBE cells): minimal toxicity
- increasing the amount of internalized complex, compared with other reagents known to open tight junctions (polarized NHBE cells [1]; vs EDTA, poly-lysine, sodium caprate, decanoylcarnitine, sodium glycocholate): most effective
- penetration of lanthanum precipitates through epithelial tight junctions [2]: penetrated through the epithelial tight junctions
- airway epithelial cell damage by EM ([3]; 0.4M): some damaged airway epithelial cells were observed
- cells transduced by AdV in cartilaginous airways ([3]; treated prior to AdV instillation): localized to columnar epithelial cells
- increase in SEAP expression (polarized NHBE cells [4]; 0.5 h pre-treatment, GL-67:pCF1-SEAP 40:53 μM 4 h, assayed after 48 h, FIG. 1): ~55 fold
- ability to transfect with cationic lipid:pDNA complexes (polarized NHBE cells [4]; treatment of polarized normal human bronchial epithelial cells): significant enhancement
- effect on virus activity (AdV): no measurable effect
- effectiveness at disrupting tight junctions (tight junctions): more effective than EDTA
